According to article PMC11995724, “Antibiotic target discovery by integrated phenotypic and activity-based profiling of electrophilic fragments” (Cell chemical biology, 2025):

test: in vitro; settings: human, hek293t cells

**Q.** For `COc1cccc(C=C(C#N)C(=O)Nc2ccccc2C(=O)O)c1` [9-G08, 2-[2-cyano-3-(3-methoxyphenyl)prop-2-enamido]benzoic acid], which viability at 48 h, 25 µM is on record?
**A.** 102%

**Q.** With `COc1ccc(NC(=O)C(C#N)=Cc2c(Cl)nc3ccccn23)cc1` [9-G09, 3-{2-chloroimidazo[1,2-a]pyridin-3-yl}-2-cyano-N-(4-methoxyphenyl)prop-2-enamide] as the compound, how does the viability at 48 h, 25 µM read?
**A.** 121%

**Q.** With `N#CC(=Cc1ccc(O)c([N+](=O)[O-])c1)C(=O)Nc1ccccc1C(=O)O` [9-G10, 2-[2-cyano-3-(4-hydroxy-3-nitrophenyl)prop-2-enamido]benzoic acid] as the compound, how does the viability at 48 h, 25 µM read?
**A.** 118%

**Q.** Which viability at 48 h, 25 µM does the source give for `CCCCNC(=O)C(C#N)=Cc1ccc2c(c1)OCCO2` [9-G11, N-butyl-2-cyano-3-(2,3-dihydro-1,4-benzodioxin-6-yl)prop-2-enamide] here?
**A.** 106%

**Q.** Which viability at 48 h, 25 µM does the source give for `COc1cc(C=C(C#N)C(=O)NC2CC2)ccc1O` [9-G12, 2-cyano-N-cyclopropyl-3-(4-hydroxy-3-methoxyphenyl)prop-2-enamide] here?
**A.** 110%

**Q.** With `N#CC(=Cc1ccc(Cl)cc1)C(=O)NCc1ccccc1` [9-G13, N-benzyl-3-(4-chlorophenyl)-2-cyanoprop-2-enamide] as the compound, how does the viability at 48 h, 25 µM read?
**A.** 104%

**Q.** With `COc1ccc(C=C(C#N)C(=O)Nc2ccc(C(=O)O)cc2)cc1C` [9-G14, 4-[2-cyano-3-(4-methoxy-3-methylphenyl)prop-2-enamido]benzoic acid] as the compound, how does the viability at 48 h, 25 µM read?
**A.** 108%

**Q.** Which viability at 48 h, 25 µM does the source give for `N#CC(=Cc1ccc(OC(F)F)cc1)C(=O)Nc1ccccc1` [9-G15, 2-cyano-3-[4-(difluoromethoxy)phenyl]-N-phenylprop-2-enamide] here?
**A.** 139%

**Q.** Which viability at 48 h, 25 µM does the source give for `CC1CC1c1ccc(C=C(C#N)C(=O)Nc2ccc(C(=O)O)cc2)o1` (stereo not shown) [9-G16, 4-{2-cyano-3-[5-(2-methylcyclopropyl)furan-2-yl]prop-2-enamido}benzoic acid] here?
**A.** 133%

**Q.** Which viability at 48 h, 25 µM does the source give for `Cc1cccc(C)c1NC(=O)C(C#N)=Cc1ccc(C(=O)O)cc1` [9-G17, 4-{2-cyano-2-[(2,6-dimethylphenyl)carbamoyl]eth-1-en-1-yl}benzoic acid] here?
**A.** 111%

**Q.** Which viability at 48 h, 25 µM does the source give for `N#CC(=Cc1ccc(-c2cccc([N+](=O)[O-])c2)s1)C(=O)NC1CC1` [9-G18, 2-cyano-N-cyclopropyl-3-[5-(3-nitrophenyl)thiophen-2-yl]prop-2-enamide] here?
**A.** 103%

**Q.** For `Cc1ccc(NC(=O)C(C#N)=Cc2ccc(OC(F)F)cc2)c(C)c1` [9-G19, 2-cyano-3-[4-(difluoromethoxy)phenyl]-N-(2,4-dimethylphenyl)prop-2-enamide], which viability at 48 h, 25 µM is on record?
**A.** 90.4%

**Q.** Which viability at 48 h, 25 µM does the source give for `COc1cc(C=C(C#N)C(=O)Nc2cccc(Cl)c2)cc(O)c1O` [9-G20, N-(3-chlorophenyl)-2-cyano-3-(3,4-dihydroxy-5-methoxyphenyl)prop-2-enamide] here?
**A.** 72.4%

**Q.** With `Cn1c(CNC=C(C#N)C(=O)Nc2ccccc2)cc(=O)n(C)c1=O` [9-G21, 2-cyano-3-{[(1,3-dimethyl-2,6-dioxo-1,2,3,6-tetrahydropyrimidin-4-yl)methyl]amino}-N-phenylprop-2-enamide] as the compound, how does the viability at 48 h, 25 µM read?
**A.** 115%

**Q.** Which viability at 48 h, 25 µM does the source give for `N#CC(=Cc1ccc(O)cc1)C(=O)Nc1ccc(Cl)cc1Cl` [9-G22, 2-cyano-N-(2,4-dichlorophenyl)-3-(4-hydroxyphenyl)prop-2-enamide] here?
**A.** 82.3%

**Q.** For `Cc1ccc(NC(=O)C(C#N)=Cc2ccc3c(c2)OCCO3)c(C)c1` [9-H03, 2-cyano-3-(2,3-dihydro-1,4-benzodioxin-6-yl)-N-(2,4-dimethylphenyl)prop-2-enamide], which viability at 48 h, 25 µM is on record?
**A.** 107%

**Q.** For `CC(NC(=O)C(C#N)=Cc1ccco1)c1cccc(-n2ccnc2)c1` (stereo not shown) [9-H04, 2-cyano-3-(furan-2-yl)-N-{1-[3-(1H-imidazol-1-yl)phenyl]ethyl}prop-2-enamide], which viability at 48 h, 25 µM is on record?
**A.** 127%

**Q.** With `C=CCNC(=O)C(C#N)=Cc1ccccc1OC` [9-H05, 2-cyano-3-(2-methoxyphenyl)-N-(prop-2-en-1-yl)prop-2-enamide] as the compound, how does the viability at 48 h, 25 µM read?
**A.** 114%

**Q.** For `Cc1ncsc1C=C(C#N)C(=O)NCCc1ccccc1` [9-H06, 2-cyano-3-(4-methyl-1,3-thiazol-5-yl)-N-(2-phenylethyl)prop-2-enamide], which viability at 48 h, 25 µM is on record?
**A.** 99.1%

**Q.** For `C=CCNC(=O)C(C#N)=Cc1cc(F)ccc1F` [9-H07, 2-cyano-3-(2,5-difluorophenyl)-N-(prop-2-en-1-yl)prop-2-enamide], which viability at 48 h, 25 µM is on record?
**A.** 111%

**Q.** For `COCCNC(=O)C(C#N)=Cc1cccc(O)c1` [9-H08, 2-cyano-3-(3-hydroxyphenyl)-N-(2-methoxyethyl)prop-2-enamide], which viability at 48 h, 25 µM is on record?
**A.** 121%

**Q.** With `COCC(C)NC(=O)C(C#N)=Cc1ccc(F)c(C)c1` (stereo not shown) [9-H09, 2-cyano-3-(4-fluoro-3-methylphenyl)-N-(1-methoxypropan-2-yl)prop-2-enamide] as the compound, how does the viability at 48 h, 25 µM read?
**A.** 108%

**Q.** Which viability at 48 h, 25 µM does the source give for `N#CC(=Cc1ccc(-c2ccccc2F)o1)C(=O)NCc1ccccc1` [9-H10, N-benzyl-2-cyano-3-[5-(2-fluorophenyl)furan-2-yl]prop-2-enamide] here?
**A.** 92.7%

**Q.** For `CCCCNC(=O)C(C#N)=Cc1cccc(Cl)c1Cl` [9-H11, N-butyl-2-cyano-3-(2,3-dichlorophenyl)prop-2-enamide], which viability at 48 h, 25 µM is on record?
**A.** 24.1%

**Q.** Which viability at 48 h, 25 µM does the source give for `Cc1nccn1Cc1ccc(NC(=O)C(C#N)=Cc2ccco2)cc1` [9-H12, 2-cyano-3-(furan-2-yl)-N-{4-[(2-methyl-1H-imidazol-1-yl)methyl]phenyl}prop-2-enamide] here?
**A.** 93%

**Q.** For `CCCCNC(=O)C(C#N)=Cc1ccc(Cl)cc1` [9-H13, N-butyl-3-(4-chlorophenyl)-2-cyanoprop-2-enamide], which viability at 48 h, 25 µM is on record?
**A.** 72.9%

**Q.** For `COc1ccc(C=C(C#N)C(N)=O)c(Cl)c1OC` [9-H14, 3-(2-chloro-3,4-dimethoxyphenyl)-2-cyanoprop-2-enamide], which viability at 48 h, 25 µM is on record?
**A.** 105%

**Q.** With `N#CC(=Cc1ccc(N2CCCCCC2)cc1)C(=O)NCC1CCCO1` (stereo not shown) [9-H15, 3-[4-(azepan-1-yl)phenyl]-2-cyano-N-[(oxolan-2-yl)methyl]prop-2-enamide] as the compound, how does the viability at 48 h, 25 µM read?
**A.** 71.9%

**Q.** Which viability at 48 h, 25 µM does the source give for `N#CC(=Cc1ccc(Cl)cc1)C(=O)Nc1ccccn1` [9-H16, 3-(4-chlorophenyl)-2-cyano-N-(pyridin-2-yl)prop-2-enamide] here?
**A.** 128%

**Q.** With `N#CC(=Cc1ccc(-c2ccc(F)cc2)o1)C(=O)NC1CCCCC1` [9-H17, 2-cyano-N-cyclohexyl-3-[5-(4-fluorophenyl)furan-2-yl]prop-2-enamide] as the compound, how does the viability at 48 h, 25 µM read?
**A.** 77.1%

**Q.** With `N#CC(=Cc1c(C2CC2)nc2sccn12)C(=O)NC1CCCCC1` [9-H18, 2-cyano-N-cyclohexyl-3-{6-cyclopropylimidazo[2,1-b][1,3]thiazol-5-yl}prop-2-enamide] as the compound, how does the viability at 48 h, 25 µM read?
**A.** 86.8%

**Q.** Which viability at 48 h, 25 µM does the source give for `N#CC(=Cc1ccc(Cl)cc1Cl)C(=O)Nc1nccs1` [9-H19, 2-cyano-3-(2,4-dichlorophenyl)-N-(1,3-thiazol-2-yl)prop-2-enamide] here?
**A.** 121%

**Q.** For `N#CC(=Cc1ccco1)C(=O)NS(=O)(=O)c1cccc2cnccc12` [9-H20, 2-cyano-3-(furan-2-yl)-N-(isoquinoline-5-sulfonyl)prop-2-enamide], which viability at 48 h, 25 µM is on record?
**A.** 105%

**Q.** Which viability at 48 h, 25 µM does the source give for `COc1cc(C=C(C#N)C(=O)NC2CCCCC2C)cc(OC)c1O` (stereo not shown) [9-H21, 2-cyano-3-(4-hydroxy-3,5-dimethoxyphenyl)-N-(2-methylcyclohexyl)prop-2-enamide] here?
**A.** 95.8%

**Q.** For `N#CC(=Cc1ccsc1)C(=O)NCc1ccco1` [9-H22, 2-cyano-N-[(furan-2-yl)methyl]-3-(thiophen-3-yl)prop-2-enamide], which viability at 48 h, 25 µM is on record?
**A.** 123%

**Q.** Which viability at 48 h, 25 µM does the source give for `CCCn1c(C)cc(C=C(C#N)C(=O)N2CCCC2)c1C` [9-I03, 3-(2,5-dimethyl-1-propyl-1H-pyrrol-3-yl)-2-(pyrrolidine-1-carbonyl)prop-2-enenitrile] here?
**A.** 134%

**Q.** Which viability at 48 h, 25 µM does the source give for `N#CC(=Cc1ccc(C(F)(F)F)cc1)C(=O)Nc1ccccc1` [9-I04, 2-cyano-N-phenyl-3-[4-(trifluoromethyl)phenyl]prop-2-enamide] here?
**A.** 93.7%

**Q.** With `COc1cc(CNC(=O)C(C#N)=Cc2ccco2)c2ccccc2n1` [9-I05, 2-cyano-3-(furan-2-yl)-N-[(2-methoxyquinolin-4-yl)methyl]prop-2-enamide] as the compound, how does the viability at 48 h, 25 µM read?
**A.** 114%

**Q.** For `N#CC(=Cc1ccsc1)C(=O)Nc1ccc(Cl)cc1` [9-I06, N-(4-chlorophenyl)-2-cyano-3-(thiophen-3-yl)prop-2-enamide], which viability at 48 h, 25 µM is on record?
**A.** 112%

**Q.** For `Cc1nn(C)c(C)c1C=C(C#N)C(=O)Nc1ccccc1F` [9-I07, 2-cyano-N-(2-fluorophenyl)-3-(1,3,5-trimethyl-1H-pyrazol-4-yl)prop-2-enamide], which viability at 48 h, 25 µM is on record?
**A.** 122%

**Q.** With `CN(C)c1ccc(C=C(C#N)C(=O)Nc2ccccc2C(=O)O)cc1` [9-I08, 2-{2-cyano-3-[4-(dimethylamino)phenyl]prop-2-enamido}benzoic acid] as the compound, how does the viability at 48 h, 25 µM read?
**A.** 95.5%

**Q.** With `CC(C)NC(=O)C(C#N)=Cc1ccc(F)cc1` [9-I09, 2-cyano-3-(4-fluorophenyl)-N-(propan-2-yl)prop-2-enamide] as the compound, how does the viability at 48 h, 25 µM read?
**A.** 119%

**Q.** Which viability at 48 h, 25 µM does the source give for `COc1cc(C=C(C#N)C(=O)NCc2ccccc2)cc2c1OCCO2` [9-I10, N-benzyl-2-cyano-3-(8-methoxy-2,3-dihydro-1,4-benzodioxin-6-yl)prop-2-enamide] here?
**A.** 118%

**Q.** With `CC(C)NC(=O)C(C#N)=Cc1ccc(C(C)C)cc1` [9-I11, 2-cyano-N-(propan-2-yl)-3-[4-(propan-2-yl)phenyl]prop-2-enamide] as the compound, how does the viability at 48 h, 25 µM read?
**A.** 78.1%

**Q.** Which viability at 48 h, 25 µM does the source give for `Cc1cc(C=C(C#N)C(N)=O)c(C)n1-c1cccc2ccccc12` [9-I12, 2-cyano-3-[2,5-dimethyl-1-(naphthalen-1-yl)-1H-pyrrol-3-yl]prop-2-enamide] here?
**A.** 86.9%

**Q.** For `CCOc1cc(C=C(C#N)C(=O)NC(C)C)cc(Cl)c1O` [9-I13, 3-(3-chloro-5-ethoxy-4-hydroxyphenyl)-2-cyano-N-(propan-2-yl)prop-2-enamide], which viability at 48 h, 25 µM is on record?
**A.** 87.3%

**Q.** With `N#CC(=Cc1cccnc1)C(=O)NCc1ccccc1` [9-I14, N-benzyl-2-cyano-3-(pyridin-3-yl)prop-2-enamide] as the compound, how does the viability at 48 h, 25 µM read?
**A.** 113%

**Q.** For `Cc1c(C=C(C#N)C(=O)NCc2ccccc2)cc(C#N)n1C` [9-I15, N-benzyl-2-cyano-3-(5-cyano-1,2-dimethyl-1H-pyrrol-3-yl)prop-2-enamide], which viability at 48 h, 25 µM is on record?
**A.** 134%

**Q.** Which viability at 48 h, 25 µM does the source give for `N#CC(=Cc1ccc(O)cc1)C(=O)NCCc1c(F)cccc1F` [9-I16, 2-cyano-N-[2-(2,6-difluorophenyl)ethyl]-3-(4-hydroxyphenyl)prop-2-enamide] here?
**A.** 121%
